Results taken from US8178506B2, “Oligomeric compounds and compositions for use in modulation of small non-coding RNAs” (Regulus Therapeutics Inc., priority 2003, dated 2012).
In the oligonucleotide strings, read from the 5' end, every base follows the letter of its sugar. An asterisk marks phosphorothioate; unmarked linkages are phosphodiester. Other units and linkages are bracketed, terminal groups are in braces. A string of capitals states the bases alone. e = 2'-O-(2-methoxyethyl) (MOE); [5mC] = 5-methylcytosine; d = 2'-deoxy (DNA)

Legend:
let-7d pri-miRNA = let-7d pri-miRNA expression in T-24 cells; type: cell-based, human; conditions: 100 nM
Description: Using the transfection methods previously described, supra, T-24 cells were treated with 100 nM of the oligomeric compound ISIS Number 327926 (SEQ ID NO: 344) targeting the let-7d mature miRNA. Total RNA was isolated and expression levels of the let-7d pri-miRNA were analyzed by real-time quantitative RT-PCR using a primer/probe set specific for the let-7d pri-miRNA molecule (forward primer=ISIS 341678 (CCTAGGAAGAGGTAG TAGGTTGCA; herein incorporated as SEQ ID NO.: 771), reverse primer=ISIS 341679 ([…]; herein incorporated as SEQ ID NO.: 772), and probe=ISIS 341680 ([…]; herein incorporated as SEQ ID NO.: 773)).

let-7i pri-miRNA = let-7i pri-miRNA expression in HeLa cells; type: cell-based, human; conditions: 100 nM
Description: Using the transfection methods previously described, HeLa cells were treated with 100 nM of the oligomeric compound ISIS Number 327890 (SEQ ID NO: 308) targeting the let-7i mature miRNA. Total RNA was isolated and expression levels of the let-7i pri-miRNA were analyzed by real-time quantitative RT-PCR using a primer/probe set specific for the let-7i pri-miRNA molecule [forward primer-ISIS 341684 ([…]; herein incorporated as SEQ ID NO.: 777), reverse primer=ISIS 341685 ([…]; herein incorporated as SEQ ID NO.: 778), and probe=ISIS 341686 ([…]; herein incorporated as SEQ ID NO.: 779)].

TLR4 = TLR4 mRNA in primary murine macrophages; type: cell-based, mouse; conditions: LPS-stimulated and LPS- and IFN-gamma-stimulated macrophages
Description: Following the 24 hour treatment with LPS, the cells were lysed and RNA was isolated using the RNEASY 96™ kit, as described herein. mRNA expression was quantitated by real-time PCR, performed as described herein, using primer and probe sets to amplify and quantitate TLR4, IL-12 and IL-6 mRNA expression levels. Primers and probe for TLR4, designed using GenBank Accession number NM_021297.1, were: forward primer, 5′-[…]-3′ (SEQ ID NO: 2172), reverse primer, 5′-[…]-3′ (SEQ ID NO: 2173), probe 5′-FAM-[…]-TAMRA-3′ (SEQ ID NO: 2174). Primers and probe for IL-12, designed using GenBank Accession number M86671.1, were: forward primer, 5′-[…]-3′ (SEQ ID NO: 2175), reverse primer, 5′-[…]-3′ (SEQ ID NO: 2176), probe 5′-FAM-[…]-TAMRA-3′ (SEQ ID NO: 2177). Primers and probe for IL-6, designed using GenBank Accession number X54542.1, were: forward primer, 5′-[…]-3′ (SEQ ID NO: 2178), reverse primer, 5′-[…]-3′ (SEQ ID NO: 2179), probe 5′-FAM-[…]-TAMRA-3′ (SEQ ID NO: 2180). The amount of total RNA in each sample was determined using a Ribogreen Assay (Molecular Probes, Eugene, Oreg.), and expression levels of TLR4, IL-12 and IL-6 were normalized to total RNA.
TLR4 is the primary macrophage receptor for LPS. […]

IL-12 mRNA = IL-12 mRNA in LPS-activated primary murine macrophages; type: cell-based, mouse; conditions: LPS-stimulated primary murine macrophages
IL-6 mRNA = IL-6 mRNA in LPS-activated primary murine macrophages; type: cell-based, mouse; conditions: IFN-gamma-stimulated and unstimulated cells, 75-600 nM
Description: To investigate the role of miRNAs in the immune response, oligomeric compounds of the present invention targeting miRNAs were tested for their effects upon lipopolysaccharide (LPS)-activated primary murine macrophages. Macrophages participate in the immune response, for example, in the recognition and phagocytosis of microorganisms, including bacteria. Interferon-gamma (IFN-gamma) released by helper T cells is one type of signal required for macrophage activation, and LPS can serve as an additional stimulus. LPS is a component of the gram-negative bacterial cell wall and acts as an agonist for toll-like receptor 4 (TLR4), the primary LPS receptor expressed by macrophages. The proinflammatory cytokines interleukin-12 (IL-12) and interleukin-6 (IL-6) are induced by LPS treatment of macrophages, thus the expression of the mRNAs encoding these cytokines was used to evaluate the response of macrophages to LPS following treatment with oligomeric compounds targeting miRNAs.
Macrophages were isolated as follows. Female C57B1/6 mice (Charles River Laboratories, Wilmington, Mass.) were injected intraperitoneally with 1 ml 3% thioglycollate broth (Sigma-Aldrich, St. Louis, Mo.), and peritoneal macrophage cells were isolated by peritoneal lavage 4 days later. The cells were plated in 96-well plates at 40,000 cells/well for one hour in serum-free RPMI adjusted to contain 10 mM HEPES (Invitrogen Life Technologies, Carlsbad, Calif.), allowed to adhere, then non-adherent cells were washed away and the media was replaced with RPMI containing 10 mM HEPES, 10% FBS and penicillin/streptomycin (“complete” RPMI; Invitrogen Life Technologies, Carlsbad, Calif.).
Oligomeric compounds were introduced into the cells using the non-liposomal transfection reagent FuGENE 6 Transfection Reagent (Roche Diagnostics Corp., Indianapolis, Ind.). Oligomeric compound was mixed with FuGENE 6 in 1 mL of serum-free RPMI to achieve a concentration of 10 μL FuGENE per 1000 nM oligomeric compound. The oligomeric compound/FuGENE complex was allowed to form at room temperature for 20 minutes. This mixture was diluted to the desired concentration of oligomeric compound by the addition of the appropriate volume of complete RPMI. The final ratio of FuGENE 6 to oligomeric compound was 1 μL of FuGENE 6 per 100 nM oligomeric compound. A volume of 100 μL of oligomeric compound/FuGENE/RPMI was added to each well of the 96-well plate in which the macrophages were cultured. Each oligomeric compound treatment was repeated in triplicate.
Following oligomeric compound treatment, cells were stimultated with LPS. Cells were cultured in the presence of the transfection complex for approximately 24 to 28 hours at 37° C. and 5% CO2, after which the medium containing the transfection complex was removed from the cells, and complete RPMI containing 100 ng/mL LPS (Sigma-Aldrich Corp., St. Louis, Mo.) was added to the cells for a period of approximately 24 hours. Control samples included (1) cells receiving no oligomeric compound, stimulated with LPS and (2) cells receiving neither oligomeric compound nor LPS treatment.
In another embodiment, following oligomeric compound treatment, cells were first activated by IFN-gamma, to amplify the response to LPS. Cells were cultured in the presence of the transfection complex for approximately 24 hours at 37° C. and 5% CO2, at which point the medium containing the transfection complex was removed from the cells, and complete RPMI containing 100 ng/mL recombinant mouse IFN-gamma (R&D Systems, Minneapolis, Minn.) was added to the cells. After the 4 hour treatment with INF-gamma, cells were treated with 100 ng/mL LPS for approximately 24 hours. Control samples included (1) cells receiving no oligomeric compound, stimulated with LPS and (2) cells receiving neither oligomeric compound nor LPS treatment. […]

mir-24-2 pri-miRNA = mir-24-2 pri-miRNA expression in HeLa cells; type: cell-based, human; conditions: 100 nM
Description: The expression levels of mir-24-2, let-7i , and let-7d were assessed in HeLa or T-24 cells treated with various uniform 2′-MOE oligomeric compounds targeting mature miRNAs. For example, using the transfection methods previously described, HeLa cells were treated with 100 nM of the oligomeric compound ISIS Number 327945 (SEQ ID NO: 363) targeting the mir-24-2 mature miRNA. Total RNA was isolated and expression levels of the mir-24-2 pri-miRNA were analyzed by real-time quantitative RT-PCR using a primer/probe set specific for the mir-24-2 pri-miRNA molecule [forward primer=ISIS 359358 (CCCTGGGCTCTGCCT; herein incorporated as SEQ ID NO.: 908), reverse primer-ISIS 359359 ([…]; herein incorporated as SEQ ID NO.: 909), and probe=ISIS 359360 (CGTGCCTACTGAGC; herein incorporated as SEQ ID NO.: 910)].

ACTATGCAACCTACTACCTCT (chemistry not given here) [ISIS 327926, uniform 2′-MOE PS; targets let-7d]
increase in expression levels of the let-7d pri-miRNA molecule (let-7d pri-miRNA): approximately 1.7 fold

AGCACAAACTACTACCTCA (chemistry not fully specified) [ISIS 327890, uniform 2′-MOE PS; targets let-7i]
increase in expression levels of the let-7i pri-miRNA molecule (let-7i pri-miRNA): approximately 4 fold

CCACATTGAGTTTCTTTAAG (e[5mC]*e[5mC]*eA*e[5mC]*eA*dT*dT*dG*dA*dG*dT*dT*dT*d[5mC]*dT*eT*eT*eA*eA*eG) [ISIS 229927, 5-10-5 2′-MOE gapmer PS targeting mouse TLR4 mRNA, positive control, reference compound]
expression of TLR4 (TLR4): reduced the expression of TLR4 in a dose-dependent manner | IL-12 mRNA expression (IL-12 mRNA): dose-dependent reduction in IL-12 | IL-6 expression (IL-6 mRNA): some reduction in IL-6 expression

CTGTTCCTGCTGAACTGAGCCA (anti-miR; chemistry not fully specified) [ISIS 327945, uniform 2′-MOE PS; targets mir-24-2]
increase in expression levels of the mir-24-2 pri-miRNA molecule (mir-24-2 pri-miRNA): approximately 35 fold
